# Patent publication EP0498830B1, “GLUTAMIC AND ASPARTIC ACID DERIVATIVES WITH ANTIGASTRIN ACTIVITY AND A METHOD FOR THEIR PREPARATION” (ROTTA RESEARCH LABORATORIUM S.P.A., priority 1989, dated 1991)
# Where two headings read alike, the source gives them in different places.
# Assays:
# [1] = test system: guinea-pig gall bladders stimulated in vitro by CCK-8; experiment: Anti-CCK activity on guinea-pig gall bladder contracted in vitro by CCK-8; conditions: for IC50 ACTIVITY: CCK-8 10 ng/ml, at least three tests per compound
# Experimental: In order to check the hypothesis that the molecular conformation of the subject compounds is suitable to give them a specific antagonistic activity towards gastrin and not towards CCK, the anticontracturant activity of some of the compounds of the invention was tested on guinea-pig gall bladders stimulated in vitro by CCK-8.
# A longitudinal strip of guinea-pig gall bladder was placed in a bath for isolated organs in the presence of Krebs at a temperature of 32°C, continuously oxygenated by an oxygen-CO₂ mixture (95-5 V/V).
# The isometric contractions were detected by means of a force transducer and recorded.
# The gall bladder was contracted with the use of a 10ng/ml concentration of CCK-8; the antagonistic activity of the compounds towards the contracturant effect of the CCK was determined with the use of different concentrations and the IC50 value, that is, the concentration in mcg/ml of the compound which is able to antagonise the contracturant effect of the CCK by 50%, thus determined.
# The results obtained are set out in the table below which gives the compounds tested and the IC50s which were calculated by the regression method on a set of at least three tests for each compound investigated.
# [2] = test system: mice; experiment: Acute toxicity LD50 IV in mice; conditions: LD50 IV mice / ID50 IV rats
# [3] = target: T1, gastrin receptor sites on the parietal cell membranes of the fundic mucosa of a guinea-pig stomach (Cavia porcellus, UniProt H0VZC5); experiment: Inhibition of binding of tritiated pentagastrin to isolated guinea-pig gastric glands; parameters: from tissue; host or cells: isolated gastric glands from guinea-pig fundic mucosa (collagenase digestion)
# T1 sequence (H0VZC5 1-426): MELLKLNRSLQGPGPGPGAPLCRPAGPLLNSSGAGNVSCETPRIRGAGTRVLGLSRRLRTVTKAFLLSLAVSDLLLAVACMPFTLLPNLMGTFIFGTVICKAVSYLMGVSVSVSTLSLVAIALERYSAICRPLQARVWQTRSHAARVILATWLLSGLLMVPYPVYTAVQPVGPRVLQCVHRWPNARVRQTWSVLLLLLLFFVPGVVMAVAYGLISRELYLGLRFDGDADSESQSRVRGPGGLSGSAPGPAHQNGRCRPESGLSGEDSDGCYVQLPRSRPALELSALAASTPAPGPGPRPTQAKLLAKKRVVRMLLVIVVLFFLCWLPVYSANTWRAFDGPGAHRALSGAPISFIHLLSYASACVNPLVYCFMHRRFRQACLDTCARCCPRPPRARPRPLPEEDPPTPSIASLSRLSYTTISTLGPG
# Experimental: (§1) The capacity of some of the compounds which are the subject of the invention to inhibit the binding of pentagastrin-[beta-alanyl-3-3H(N)] to the gastrin receptor sites on the parietal cell membranes of the fundic mucosa of a guinea-pig stomach was evaluated by comparison with the displacement of pentagastrin induced by proglumide, which is a reference antigastrin compound, by lorglumide, which is a powerful CCK antagonist mentioned above, and by the compound D5 which is the optical antipode (the L-series enantiomer) of the compound D1.
# (§2) Male guinea pigs weighing about 400-500g were used. After the guinea pig had been killed, its stomach was removed and placed in oxygenated SPB buffer at 37°C (SPB = saline phosphate buffer: 149.6 mM NaCl, 3 mM K₂HPO₄, 0.64 mM NaH₂PO₄, pH 7.3).
# (§3) After washing in the buffer, the stomach was placed on a petri dish and the antral part discarded.
# The mucosa of the remaining part was removed from the underlying muscular part and was then chopped and transferred to a flask containing a collagenase digestion solution, 0.1% BSA and 0.2% glucose. The solution was incubated at 37°C for 10 minutes under agitation and a stream of 0₂.
# During the incubation period, the tissue was passed several times through a series of pipettes with decreasing diameters in order to facilitate its digestion. At the end of the period, the tissue was removed and centrifuged at 1000 rpm. The supernatant liquid resulting from the centrifuging was discarded and the pellet washed several times with a washing buffer containing EPTA to remove the collagenase.
# The glands were then isolated from the undigested tissue by conventional techniques, suspended in Hepes buffer for binding and incubated together with a radioactive tracer and the compounds under test for 30 minutes at 25°C.
# After the supernatant liquid had been removed by centrifuging, the radioactivity associated with the pellet was determined with a liquid scintillator. The specific binding was determined as the difference between the binding in the absence and in the presence of 10⁻⁶ M pentagastrin.
# The results obtained are shown in Table 1 which gives the IC50, that is, the concentration (in moles/litre) of the antagonist which can displace 50% of the pentagastrin tritiate from the receptor.
# [4] = in vivo; conditions: mouse, iv
# [5] = target: T2, central gastrin receptors (Mus musculus, UniProt P56481); experiment: Inhibition of binding of tritiated pentagastrin to mouse cerebral cortex membranes; parameters: Mouse cortex tissue was homogenised cold in 20 volumes of tris buffer (pH 7.7); from tissue; host or cells: mouse cerebral cortex membranes; species or system mice; conditions: for IC50: displacement of pentagastrin tritiate, 40 minutes at 37°C
# T2 sequence (P56481 1-453): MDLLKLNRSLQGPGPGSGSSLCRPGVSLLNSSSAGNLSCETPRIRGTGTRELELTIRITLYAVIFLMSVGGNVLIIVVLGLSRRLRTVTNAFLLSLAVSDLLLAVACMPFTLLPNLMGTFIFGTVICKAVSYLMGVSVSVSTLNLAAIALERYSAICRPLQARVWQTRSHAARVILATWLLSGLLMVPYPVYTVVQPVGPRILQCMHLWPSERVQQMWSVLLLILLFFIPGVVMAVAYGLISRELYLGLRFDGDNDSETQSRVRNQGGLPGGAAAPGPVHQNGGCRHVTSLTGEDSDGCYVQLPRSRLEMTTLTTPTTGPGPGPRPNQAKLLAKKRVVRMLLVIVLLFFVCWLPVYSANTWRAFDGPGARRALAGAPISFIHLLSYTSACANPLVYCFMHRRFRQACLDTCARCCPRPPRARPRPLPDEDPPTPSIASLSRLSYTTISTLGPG
# Experimental: (§4) Cerebral cortex membranes were therefore used and pentagastrin tritiate was again used as the ligand.
# (§5) Mouse cortex tissue was homogenised cold in 20 volumes of tris buffer (pH 7.7). After washing and centrifuging, the final pellet was resuspended in 20 volumes of binding buffer containing, inter alia, TRIS, BSA and bacitracin. 0.4 ml of the membrane thus obtained were then incubated with a radioactive tracer and with the compounds under test for 40 minutes at 37°C.
# (§6) After the supernatant liquid had been removed by centrifuging, the radioactivity associated with the pellet was determined, again with a liquid scintillator. The specific binding is the difference between the binding in the absence and in the presence of 10⁻⁶M pentagastrin.
# (§7) Again, this gives the IC50s of the compounds tested with the meaning as given above.
# [6] = test system: gastric acid secretion induced by pentagastrin; experiment: Antisecretive activity in anaesthetised rats, stimulant pentagastrin; type: in vivo; conditions: for ED50: Rattus norvegicus, iv, pentagastrin 30 mcg/kg/h, I.V. bolus, anaesthetised rats, read-out: Antagonistic activity (ED50 mg/kg IV) towards gastric acid secretion induced by pentagastrin
# Experimental: The antisecretive activity was determined in rats with the use of male animals weighing about 200g, anaesthetised with urethane. Gastric secretion was stimulated with pentagastrin. K.S. Lai's method (Gut 5, (1964), 327-341) was used, with slight modifications.
# After tracheotomy, oesophageal and duodenal cannulae were inserted. A tepid solution (37°C) of 0.25 mM NaOH was perfused through the stomach by means of a peristaltic pump at a constant flow rate of 1 ml/minute. After stabilisation for 20 minutes, the dose of the stimulant, indicated in Table 3, dissolved in a physiological solution, was perfused for 120 minutes at a rate of 0.95 ml/hour. After 60 minutes of perfusion (basic stimulation), the products under test were administered intravenously (I.V.) in boli whilst the perfusion of the stimulant continued for a further 60 minutes. The acid secretion was recorded continuously as a function of time.
# The activity of the product was evaluated as the reduction in the secreted acidity after administration of the product as a percentage of the basic acidity measured during the first 60 minutes of collection during which only pentagastrin was present.
# The antagonistic compounds tested were administered in different doses so that an ID50 (that is the dose (in mg/Kg I.V.) which can inhibit the effect of the pentagastrin by 50% could be calculated.
# The results thus obtained are given in the following table in which the activities of the compounds are expressed as ID50s under the stimulus of pentagastrin at 30 mcg/Kg/h.
# [7] = test system: guinea-pig gall bladders stimulated in vitro by CCK-8; conditions: CCK-8 10ng/ml; from U.S. Patent A-4 791 215; cited from earlier work
# [8] = test system: mouse colic adenocarcinoma; experiment: Pentagastrin-induced growth of transplanted colic tumour in mice; type: in vivo; conditions: pentagastrin alone, 250 mcg/ml twice a day, 20 days
# Excerpt: (§8) Male mice weighing 20-25g were inoculated subcutaneously in the interscapular region with a suspension of 8 x 10⁴ tumour cells of a mouse colic adenocarcinoma. […] After 20 days, the animals were killed and the fundic mucosa and the tumours were removed, weighed and extracted in order to determine their DNA content.
# [9] = target: T1, gastrin receptor sites on the parietal cell membranes of the fundic mucosa of a guinea-pig stomach; experiment: Inhibition of binding of tritiated pentagastrin to isolated guinea-pig gastric glands; parameters: from tissue; host or cells: isolated guinea-pig gastric (fundic) glands; conditions: displacement of 50% of pentagastrin tritiate; 30 minutes at 25°C
# Experimental: as §1, §2, §3
# The mucosa of the remaining part was removed from the underlying muscular part and was then chopped and transferred to a flask containing a collagenase digestion solution, 0.1% BSA and 0.2% glucose. […]
# After the supernatant liquid had been removed by centrifuging, the radioactivity associated with the pellet was determined with a liquid scintillator. The specific binding was determined as the difference between the binding in the absence and in the presence of 10⁻⁶ M pentagastrin. […]
# [10] = test system: fundic mucosa; experiment: Pentagastrin-induced hyperplasia of the fundic mucosa in tumour-bearing mice; type: in vivo; conditions: pentagastrin alone, 250 mcg/ml twice a day, 20 days
# Excerpt: as §8
# [11] = target: T2, central gastrin receptors; experiment: Inhibition of binding of tritiated pentagastrin to mouse cerebral cortex membranes; parameters: Cerebral cortex membranes were therefore used and pentagastrin tritiate was again used as the ligand; from tissue; host or cells: mouse cerebral cortex membranes; species or system mice; conditions: displacement of pentagastrin tritiate; 40 minutes at 37°C
# Experimental: as §4, §5, §6, §7
# [12] = test system: mouse colic adenocarcinoma; experiment: Pentagastrin-induced growth of transplanted colic tumour in mice; type: in vivo; conditions: 20 days
# Experimental: (§9) Male mice weighing 20-25g were inoculated subcutaneously in the interscapular region with a suspension of 8 x 10⁴ tumour cells of a mouse colic adenocarcinoma.
# (§10) 5 groups each of 10 animals were used, that is : one control group of animals, one group of animals treated with 250 mcg/ml of pentagastrin twice a day and two groups of animals treated with the compound A-5 in doses of 15 and 30 mg/Kg i.p. respectively, twice a day, plus pentagastrin in the manner described above.
# (§11) After 20 days, the animals were killed and the fundic mucosa and the tumours were removed, weighed and extracted in order to determine their DNA content.
# [13] = test system: fundic mucosa; experiment: Pentagastrin-induced hyperplasia of the fundic mucosa in tumour-bearing mice; type: in vivo; conditions: 20 days
# Experimental: as §9, §10, §11
# [14] = displacement of 50% of pentagastrin tritiate, 30 minutes at 25°C, read-out: IC50
# [15] = PEG + A-5 15 mg/Kg i.p. twice a day
# [16] = PEG + A-5 30 mg/Kg i.p. twice a day
structure (smiles),measurement,setting,value
"CC(C)(C)CCNC(=O)[C@@H](CCC(=O)O)NC(=O)c1cccc(Cl)c1 [D1, D-4-(3-chlorobenzoylamino)-5-(3,3-dimethylbutylamino)-5-oxopentanoic acid]",IC50 ACTIVITY,[1],83 µg/mL
same,toxic dose (LD50) relative to the antigastrin dose (ID50),[2],about 20 times
same,IC50,[3]; [14],53 nM
same,LD50,[4],~600 mg/kg
same,times more active than the corresponding L-enantiomers (compound D5),[5]; cortical membranes,about 10 times
same,IC50,[5],61 nM
same,ED50,[6],28 mg/kg
"CCCCCN(CCCCC)C(=O)C(CCC(=O)O)NC(=O)c1ccc(Cl)c(Cl)c1 (stereo not shown) [Lorglumide, reference compound]",IC50 ACTIVITY,[1],0.06 µg/mL
same,IC50,[3]; [14],11000 nM
same,times less active than the most powerful compounds of the series,"[3]; ratio of IC50s, gastric glands",about 200 times
same,concentration inhibiting by 50% the contraction induced by CCK-8,[7],0.06 µg/mL
same,IC50,[5],6100 nM
same,times less powerful than the most active compounds,"[5]; ratio of IC50s, cortical membranes",about 100 times
same,ED50,[6],> 100 mg/kg
same,activity against pentagastrin-induced acid secretion,[6]; up to a dose of 100 mg/Kg,completely inactive
CSCC[C@H](NC(=O)[C@H](Cc1c[nH]c2ccccc12)NC(=O)CCNC(=O)OC(C)(C)C)C(=O)N[C@@H](CC(=O)O)C(=O)N[C@@H](Cc1ccccc1)C(N)=O [Pentagastrin],TUMOROUS DNA,[8],4.48 ± 0.29 mg
same,WEIGHT OF THE COLIC TUMOUR,[8],779.7 ± 27 mg
same,IC50,[9],0.41 nM
same,FUNDIC DNA,[10],0.44 ± 0.03 mg
same,WEIGHT OF THE FUNDIC MUCOSA,[10],36.0 ± 4.2 mg
same,IC50,[11],0.78 nM
CCC(C)(CC)CCNC(=O)C(CCC(=O)O)NC(=O)c1cccc(Cl)c1 (racemic) [A13],IC50 ACTIVITY,[1],32 µg/mL
same,concentration relative to that of lorglumide,[1]; times greater than lorglumide,about 500 times
same,IC50,[3],91 nM
same,IC50,[5],92 nM
same,ED50,[6],33 mg/kg
"CC(C)(C)CCNC(=O)C(CCC(=O)O)NC(=O)c1cccc(Cl)c1 (racemic) [A5, ( ± )-4-[(3-chlorobenzoyl)-amino]-5-(3,3-dimethylbutylamino)-5-oxopentanoic acid]",IC50,[3]; [14],80 nM
same,TUMOROUS DNA,[12]; [15],3.26 ± 0.49 mg
same,WEIGHT OF THE COLIC TUMOUR,[12]; [15],579.0 ± 40 mg
same,TUMOROUS DNA,[12]; [16],2.87 ± 0.2 mg
same,WEIGHT OF THE COLIC TUMOUR,[12]; [16],559.5 ± 43 mg
same,FUNDIC DNA,[13]; [15],0.28 ± 0.02 mg
same,WEIGHT OF THE FUNDIC MUCOSA,[13]; [15],25.1 ± 4.7 mg
same,FUNDIC DNA,[13]; [16],0.23 ± 0.05 mg
same,WEIGHT OF THE FUNDIC MUCOSA,[13]; [16],19.9 ± 2.1 mg
same,IC50,[5],96 nM
same,ED50,[6],35 mg/kg
